Activity calls are given as the source filed them. No cut-off for these calls is given here.
What was measured:
Caco-2 [1] = assay: Inhibition of NPC1L1 mRNA expression in human Caco-2 cells at 100 uM incubated for 24 hrs by qRT-PCR analysis; type: functional, cell-based
Caco-2 [2] = assay: Inhibition of NPC1L1 expression in human Caco-2 cells at 0.1 to 100 uM incubated for 24 hrs by Western blot analysis; type: functional, cell-based; details: dose 0.1-100 µM
[3] = target: T1, NPC1-like intracellular cholesterol transporter 1 (Homo sapiens) (UniProt Q9UHC9); assay: Inhibition of NPC1L1 in human Caco-2 cells assessed as decrease in uptake of cholesterol-d6 at 50 uM by HPLC-MS analysis; type: cell-based
T1 sequence (whole entry): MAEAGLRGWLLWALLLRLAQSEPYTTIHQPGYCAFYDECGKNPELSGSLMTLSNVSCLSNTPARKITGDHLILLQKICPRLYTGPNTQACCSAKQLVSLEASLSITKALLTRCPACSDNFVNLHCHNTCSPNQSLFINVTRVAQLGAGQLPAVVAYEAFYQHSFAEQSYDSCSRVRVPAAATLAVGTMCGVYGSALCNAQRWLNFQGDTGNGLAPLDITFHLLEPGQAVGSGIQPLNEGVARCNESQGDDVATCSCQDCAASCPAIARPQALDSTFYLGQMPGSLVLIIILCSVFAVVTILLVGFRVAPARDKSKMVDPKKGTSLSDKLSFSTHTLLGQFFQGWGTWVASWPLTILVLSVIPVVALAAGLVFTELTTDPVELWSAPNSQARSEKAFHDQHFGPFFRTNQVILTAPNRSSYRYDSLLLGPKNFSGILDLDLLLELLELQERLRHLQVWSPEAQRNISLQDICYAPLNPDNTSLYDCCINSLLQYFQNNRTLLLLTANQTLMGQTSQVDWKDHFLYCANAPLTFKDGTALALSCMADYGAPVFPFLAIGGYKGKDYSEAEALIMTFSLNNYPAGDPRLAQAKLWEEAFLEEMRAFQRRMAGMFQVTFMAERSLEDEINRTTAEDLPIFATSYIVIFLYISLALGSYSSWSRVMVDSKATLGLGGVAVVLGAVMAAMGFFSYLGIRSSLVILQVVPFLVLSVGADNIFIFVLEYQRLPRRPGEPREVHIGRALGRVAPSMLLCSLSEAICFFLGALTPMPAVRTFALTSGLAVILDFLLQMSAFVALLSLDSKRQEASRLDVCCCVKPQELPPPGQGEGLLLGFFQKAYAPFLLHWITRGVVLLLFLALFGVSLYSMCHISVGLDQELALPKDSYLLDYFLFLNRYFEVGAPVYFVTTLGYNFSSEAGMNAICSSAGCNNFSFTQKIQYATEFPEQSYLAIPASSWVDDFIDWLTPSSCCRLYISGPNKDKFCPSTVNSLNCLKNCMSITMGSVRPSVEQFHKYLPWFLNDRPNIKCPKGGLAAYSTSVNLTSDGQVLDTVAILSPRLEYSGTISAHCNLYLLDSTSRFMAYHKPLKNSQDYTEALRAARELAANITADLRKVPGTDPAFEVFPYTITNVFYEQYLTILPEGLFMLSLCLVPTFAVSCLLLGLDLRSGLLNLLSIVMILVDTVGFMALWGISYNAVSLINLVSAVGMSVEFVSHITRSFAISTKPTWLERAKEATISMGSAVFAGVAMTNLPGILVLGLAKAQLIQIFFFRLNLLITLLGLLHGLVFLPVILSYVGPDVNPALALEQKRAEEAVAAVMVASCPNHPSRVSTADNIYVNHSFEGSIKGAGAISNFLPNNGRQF

Caco-2 [4] = assay: Inhibition of PTL expression in human Caco-2 cells at 0.1 to 100 uM incubated for 24 hrs by Western blot analysis; type: functional, cell-based; details: dose 0.1-100 µM
Caco-2 [5] = assay: Inhibition of PTL mRNA expression in human Caco-2 cells at 100 uM incubated for 24 hrs by qRT-PCR analysis; type: functional, cell-based
[6] = target: T1, NPC1-like intracellular cholesterol transporter 1 (Homo sapiens); assay: Binding affinity to NPC1L1 (unknown origin) at 6.25 to 100 uM by SPR analysis; details: dose 6.25-100 µM
[7] = target: T1, NPC1-like intracellular cholesterol transporter 1 (Homo sapiens); assay: Non-competitive inhibition of NPC1L1 in human Caco-2 cells assessed as decrease in uptake of cholesterol at 50 uM by HPLC-MS based Lineweaver-Burk double reciprocal plot analysis; type: cell-based

Row | Structure (SMILES) | inhibition (Caco-2 [1]) | inhibition (Caco-2 [2]) | inhibition [3] | inhibition (Caco-2 [4]) | inhibition (Caco-2 [5]) | Activity [6] | inhibition [7]
1 | O=C1[C@H](CC[C@H](O)c2ccc(F)cc2)[C@@H](c2ccc(O)cc2)N1c1ccc(F)cc1 | inactive | inactive | Active | Active | Active |  | 
2 | CCCCCCCCCCC[C@@H](C[C@@H]1OC(=O)[C@H]1CCCCCC)OC(=O)c1cccc(O)c1 |  |  |  |  |  | Active | 
3 | CCCCCCCCCCC[C@@H](C[C@@H]1OC(=O)[C@H]1CCCCCC)OC(=O)[C@H](CC(C)C)NC=O |  | inactive | Active | Active |  | Active | 
4 | CCCCCCCCCCC[C@@H](C[C@@H]1OC(=O)[C@H]1CCCCCC)OC(=O)c1ccc(O)cc1 | inactive | inactive | Active | Active | Active | Active | Active
